Laboratory results as given in patent US9394544B2, “Ameliorating oxidative stress in neurodegenerative disease via Nox1 targeting” (University of Central Florida Research Foundation, Inc., priority 2013, dated 2016).

Test system: SN DA neurons
Test: Stereologic counting of TH-immunostained DA neurons in the SN, 6-OHDA rat model
Format: in vivo
Details: direct injection into the rat SN, in 2 weeks
Method: The experiments were carried out on rats, in accordance with the NIH Guide for the Care and Use of Laboratory Animals. All procedures were approved by the local Animal Care and Use Committee. Female Sprague Dawley (SD) rats (Charles River; 8-weeks-old at the time of the beginning of AAV expression or 6-OHDA treatment, 2 or 3 per cage) were maintained in a temperature/humidity-controlled environment under a 12 h light/dark cycle with free access to food and water. All rats were respectively allocated into […], Nox1 shRNA/AAV, T17N Rac1/AAV, and scramble (scb) shRNA/AAV or empty vector/AAV as control groups. Rats were deeply anesthetized (ketamine and xylazine mixture 30 mg/kg, i.p.) and placed in a rat stereotaxic apparatus, a site in the right substantia nigra (SN) [coordinate: anteroposterior (AP), −5.3 mm; mediolateral (ML), +2.0 mm; dorsoventral (DV), −5.8 mm] was selected to inject scb shRNA/AAV (n=8), Nox1 shRNA/AAV (n=16), T17N Rac1/AAV (n=16), and empty vector/AAV (n=28), respectively, according to the grouping. […]
A set consisting of six sections, 360 μm apart, were prepared. […] Numbers of TH-immunoreactive cells in the substantia nigra (SN) were counted using the optical fractionator (West 1990). […] The coefficient of error and coefficient of variation were also determined.

NCCc1cc(O)c(O)cc1O [6-OHDA, 6-hydroxydopamine]
loss of TH-positive SNDA neurons: 90%-95%
